Key:
Experiment in all cases: TR-FRET enzymatic activity assay against PI3K isoforms
Format in all cases: biochemical
[1] = biological target: PI3Kβ (Homo sapiens (Human), UniProt P42338); conditions: PI3Kβ, TR-FRET, 2×Km ATP, 30 minutes at 25° C.
Text: (§1) The compounds of formula (I) were characterized for their enzymatic activity against the PI3K isoforms. […] TR-FRET monitored the formation of 3,4,5-inositol triphosphate molecule that competed with fluorescently labeled PIP3 for binding to the GRP-1 pleckstrin homology domain protein.

[2] = biological target: PI3Kδ (Homo sapiens (Human), UniProt O00329); conditions: 2×Km ATP, 30 minutes at 25° C.
Text: as §1

[3] = biological target: PI3Kγ (Homo sapiens (Human), UniProt P48736); conditions: 2×Km ATP, 30 minutes at 25° C.
Text: as §1

PI3Kγ, sequence (P48736 whole entry): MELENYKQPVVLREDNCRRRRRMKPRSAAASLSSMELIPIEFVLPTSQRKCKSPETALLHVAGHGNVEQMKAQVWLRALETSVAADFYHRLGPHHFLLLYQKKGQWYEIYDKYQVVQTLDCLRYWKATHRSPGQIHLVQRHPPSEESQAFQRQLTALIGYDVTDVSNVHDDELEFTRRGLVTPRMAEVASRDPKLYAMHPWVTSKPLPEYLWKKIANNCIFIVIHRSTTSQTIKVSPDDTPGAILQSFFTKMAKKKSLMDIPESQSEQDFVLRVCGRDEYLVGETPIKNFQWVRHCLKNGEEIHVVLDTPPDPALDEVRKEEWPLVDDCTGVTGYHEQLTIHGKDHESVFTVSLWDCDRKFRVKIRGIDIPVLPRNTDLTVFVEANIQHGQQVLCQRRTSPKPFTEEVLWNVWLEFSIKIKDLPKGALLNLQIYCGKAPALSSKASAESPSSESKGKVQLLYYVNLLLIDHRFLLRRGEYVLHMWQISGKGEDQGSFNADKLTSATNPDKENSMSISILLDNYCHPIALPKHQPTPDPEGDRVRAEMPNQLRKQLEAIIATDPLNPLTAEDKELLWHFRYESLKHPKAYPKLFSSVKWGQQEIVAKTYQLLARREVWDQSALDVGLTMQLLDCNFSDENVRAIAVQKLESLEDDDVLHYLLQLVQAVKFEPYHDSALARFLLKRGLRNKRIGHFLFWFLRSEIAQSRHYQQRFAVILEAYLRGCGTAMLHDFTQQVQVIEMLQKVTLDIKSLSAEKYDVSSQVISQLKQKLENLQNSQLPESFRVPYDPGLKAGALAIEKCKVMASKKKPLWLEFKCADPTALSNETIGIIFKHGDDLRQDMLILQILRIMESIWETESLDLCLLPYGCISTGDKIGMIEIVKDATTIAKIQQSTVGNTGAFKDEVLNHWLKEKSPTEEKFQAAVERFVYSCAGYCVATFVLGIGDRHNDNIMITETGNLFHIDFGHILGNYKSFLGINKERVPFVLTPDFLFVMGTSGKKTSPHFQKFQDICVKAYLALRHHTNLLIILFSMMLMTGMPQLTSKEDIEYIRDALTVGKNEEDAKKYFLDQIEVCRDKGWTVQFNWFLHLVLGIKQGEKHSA
PI3Kβ, sequence (P42338 whole entry, the tested form may be a part, canonical isoform): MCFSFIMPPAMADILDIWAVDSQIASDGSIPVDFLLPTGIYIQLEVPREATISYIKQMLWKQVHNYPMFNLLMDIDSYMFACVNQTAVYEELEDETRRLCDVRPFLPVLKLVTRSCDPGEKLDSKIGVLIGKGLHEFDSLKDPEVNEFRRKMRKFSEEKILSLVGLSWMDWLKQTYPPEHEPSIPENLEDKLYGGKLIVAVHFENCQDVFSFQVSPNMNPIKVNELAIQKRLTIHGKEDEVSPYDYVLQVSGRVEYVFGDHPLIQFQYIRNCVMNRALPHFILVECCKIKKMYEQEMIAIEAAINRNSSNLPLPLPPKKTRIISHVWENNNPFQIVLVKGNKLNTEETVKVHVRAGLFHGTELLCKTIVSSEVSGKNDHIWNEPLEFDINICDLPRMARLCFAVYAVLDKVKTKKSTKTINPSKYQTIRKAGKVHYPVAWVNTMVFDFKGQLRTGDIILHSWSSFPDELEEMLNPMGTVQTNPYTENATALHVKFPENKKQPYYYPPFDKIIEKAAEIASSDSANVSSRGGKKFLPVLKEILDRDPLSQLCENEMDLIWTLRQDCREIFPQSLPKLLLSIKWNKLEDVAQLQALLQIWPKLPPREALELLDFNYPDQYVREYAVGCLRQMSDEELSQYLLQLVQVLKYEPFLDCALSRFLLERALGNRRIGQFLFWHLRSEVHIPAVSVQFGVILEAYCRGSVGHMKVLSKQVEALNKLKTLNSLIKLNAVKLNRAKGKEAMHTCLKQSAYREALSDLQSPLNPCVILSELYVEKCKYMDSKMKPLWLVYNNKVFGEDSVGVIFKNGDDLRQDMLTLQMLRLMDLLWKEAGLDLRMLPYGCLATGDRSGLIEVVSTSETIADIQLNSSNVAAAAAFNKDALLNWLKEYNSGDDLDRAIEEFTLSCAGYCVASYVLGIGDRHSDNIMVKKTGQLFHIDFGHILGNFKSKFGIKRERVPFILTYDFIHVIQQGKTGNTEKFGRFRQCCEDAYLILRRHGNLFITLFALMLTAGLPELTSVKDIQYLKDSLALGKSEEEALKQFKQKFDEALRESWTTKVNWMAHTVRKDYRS
PI3Kβ, sequence (P27986 whole entry partner, the tested form may be a part, canonical isoform): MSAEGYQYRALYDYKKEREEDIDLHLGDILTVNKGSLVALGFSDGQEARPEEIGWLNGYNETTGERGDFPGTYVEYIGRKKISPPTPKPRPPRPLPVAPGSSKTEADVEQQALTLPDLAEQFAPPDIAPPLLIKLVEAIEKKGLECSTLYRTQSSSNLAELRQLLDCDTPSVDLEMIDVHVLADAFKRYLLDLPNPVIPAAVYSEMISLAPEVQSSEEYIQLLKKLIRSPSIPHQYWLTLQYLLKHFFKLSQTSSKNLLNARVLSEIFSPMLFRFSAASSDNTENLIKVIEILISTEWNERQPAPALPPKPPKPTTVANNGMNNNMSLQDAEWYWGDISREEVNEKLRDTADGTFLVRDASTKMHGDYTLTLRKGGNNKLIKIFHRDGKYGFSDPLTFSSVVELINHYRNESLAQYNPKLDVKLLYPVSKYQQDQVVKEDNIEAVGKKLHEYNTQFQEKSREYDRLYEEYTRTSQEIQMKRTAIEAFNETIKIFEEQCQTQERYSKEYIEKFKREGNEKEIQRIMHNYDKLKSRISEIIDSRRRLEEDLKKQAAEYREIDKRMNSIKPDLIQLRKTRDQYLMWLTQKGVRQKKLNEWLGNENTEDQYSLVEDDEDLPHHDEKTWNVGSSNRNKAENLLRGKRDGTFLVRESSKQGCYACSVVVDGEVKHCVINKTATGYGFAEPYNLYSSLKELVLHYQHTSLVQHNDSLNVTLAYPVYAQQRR
PI3Kδ, sequence (O00329 whole entry): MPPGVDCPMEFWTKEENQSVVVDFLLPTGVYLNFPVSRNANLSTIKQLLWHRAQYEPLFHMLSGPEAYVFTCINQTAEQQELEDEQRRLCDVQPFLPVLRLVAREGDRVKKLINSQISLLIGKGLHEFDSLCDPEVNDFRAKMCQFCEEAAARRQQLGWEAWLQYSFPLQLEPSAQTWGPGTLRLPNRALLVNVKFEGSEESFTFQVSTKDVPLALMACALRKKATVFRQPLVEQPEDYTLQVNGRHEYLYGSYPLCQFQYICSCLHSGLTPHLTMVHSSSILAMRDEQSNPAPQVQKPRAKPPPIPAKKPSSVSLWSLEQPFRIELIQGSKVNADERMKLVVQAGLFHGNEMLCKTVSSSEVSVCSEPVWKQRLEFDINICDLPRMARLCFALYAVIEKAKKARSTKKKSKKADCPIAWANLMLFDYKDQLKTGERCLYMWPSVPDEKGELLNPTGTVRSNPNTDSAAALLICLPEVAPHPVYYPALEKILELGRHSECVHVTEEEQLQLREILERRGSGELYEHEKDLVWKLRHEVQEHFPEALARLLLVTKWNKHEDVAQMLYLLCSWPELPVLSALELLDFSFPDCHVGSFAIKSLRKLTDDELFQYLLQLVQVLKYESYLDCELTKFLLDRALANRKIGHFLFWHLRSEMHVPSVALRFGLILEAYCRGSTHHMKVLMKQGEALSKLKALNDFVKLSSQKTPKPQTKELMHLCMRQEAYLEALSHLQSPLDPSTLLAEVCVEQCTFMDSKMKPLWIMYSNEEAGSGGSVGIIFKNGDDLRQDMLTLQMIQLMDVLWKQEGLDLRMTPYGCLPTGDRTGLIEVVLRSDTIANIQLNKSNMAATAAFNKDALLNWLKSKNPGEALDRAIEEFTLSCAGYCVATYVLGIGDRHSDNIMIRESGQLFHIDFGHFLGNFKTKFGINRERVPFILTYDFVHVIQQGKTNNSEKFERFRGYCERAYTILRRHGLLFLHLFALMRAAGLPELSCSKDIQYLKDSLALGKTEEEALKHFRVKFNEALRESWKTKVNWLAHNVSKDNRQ
PI3Kδ, sequence (P27986 whole entry partner): as the sequence (P27986 whole entry partner, the tested form may be a part, canonical isoform) above

SMILES	IC50 [1] [µM]	IC50 [2] [µM]	IC50 [3] [µM]
C[C@H](Nc1nc(N)nc(N)c1Cl)c1nc2cccc(Cl)c2c(=O)n1CCCN [Compound 7, (S)-3-(3-aminopropyl)-5-chloro-2-(1-((2,6-diamino-5-chloropyrimidin-4-yl)amino)ethyl)quinazolin-4(3H)-one]	0.14	0.035	≥ 10
C[C@H](Nc1nc(N)nc(N)c1C#N)c1nc2cccc(Cl)c2c(=O)n1N(CCN)Cc1ccccc1 [Compound 9, (S)-2,4-diamino-6-((1-(3-((2-aminoethyl)(benzyl)amino)-5-chloro-4-oxo-3,4-dihydroquinazolin-2-yl)ethyl)amino)pyrimidine-5-carbonitrile]	0.17	0.077	≥ 10
C[C@H](Nc1ncnc(N)c1C#N)c1nc2cccc(Cl)c2c(=O)n1CC1CCCCN1 (stereo partly drawn) [Compound 91, 4-amino-6-(((1S)-1-(5-chloro-4-oxo-3-(piperidin-2-ylmethyl)-3,4-dihydroquinazolin-2-yl)ethyl)amino)pyrimidine-5-carbonitrile]	1.7	0.095	≥ 10
C[C@H](Nc1nc(N)nc(N)c1C#N)c1nc2cccc(Cl)c2c(=O)n1CCC(=O)N(C)C [Compound 128, (S)-3-(5-chloro-2-(1-((2,6-diamino-5-cyanopyrimidin-4-yl)amino)ethyl)-4-oxoquinazolin-3(4H)-yl)-N,N-dimethylpropanamide]	0.53	0.015	0.28
C[C@H](Nc1nc(N)nc(N)c1C#N)c1nc2cccc(Cl)c2c(=O)n1Cc1ncc[nH]1 [Compound 80, (S)-4-((1-(3-((1H-imidazol-2-yl)methyl)-5-chloro-4-oxo-3,4-dihydroquinazolin-2-yl)ethyl)amino)-2,6-diaminopyrimidine-5-carbonitrile]	1.1	0.027	2.4
N#Cc1c(N)ncnc1N[C@H](c1nc2cccc(Cl)c2c(=O)n1CCCN)C1CC1 [Compound 40, (S)-4-amino-6-(((3-(3-aminopropyl)-5-chloro-4-oxo-3,4-dihydroquinazolin-2-yl)(cyclopropyl)methyl)amino)pyrimidine-5-carbonitrile]	0.021	0.009	≥ 10

From patent publication US11021467B2, “Phosphatidylinositol 3-kinase inhibitors” (Gilead Sciences, Inc., priority 2014, dated 2021)
